Measured values as given in patent US8465724B2, “Multi-drug ligand conjugates” (Endocyte, Inc., priority 2005, dated 2013).
pIC50: −log10 of the molar value. “Also recorded” adds a separate entry of the source.

Experiments:
[1] = target: T1, folate receptors (FRs) on KB cells (Homo sapiens, UniProt P15328); assay: Relative affinity assay (displacement of 3H-folic acid); format: binding; details: relative to folic acid, set to 1, 100 nM 3H-folic acid
T1 construct: FR-positive KB cells were heavily seeded into 24-well cell culture plates; endogenous in cells; host or cells: KB cells
T1 sequence (P15328 25-234): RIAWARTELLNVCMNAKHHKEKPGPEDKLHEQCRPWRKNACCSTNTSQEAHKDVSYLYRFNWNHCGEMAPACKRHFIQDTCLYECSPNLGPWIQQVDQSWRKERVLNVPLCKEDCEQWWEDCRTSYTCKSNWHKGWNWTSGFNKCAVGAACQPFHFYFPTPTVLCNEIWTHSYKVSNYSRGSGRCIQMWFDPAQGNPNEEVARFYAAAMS
Description: The affinity for folate receptors (FRs) relative to folate was determined according to a previously described method (Westerhof, G. R., J. H. Schomagel, et al. (1995) Mol. Pharm. 48: 459-471) with slight modification. Briefly, FR-positive KB cells were heavily seeded into 24-well cell culture plates and allowed to adhere to the plastic for 18 h. Spent incubation media was replaced in designated wells with folate-free RPMI (FFRPMI) supplemented with 100 nM ^3H-folic acid in the absence and presence of increasing concentrations of test article or folic acid. Cells were incubated for 60 min at 37° C. and then rinsed 3 times with PBS, pH 7.4. Five hundred microliters of 1% SDS in PBS, pH 7.4, were added per well. Cell lysates were then collected and added to individual vials containing 5 mL of scintillation cocktail, and then counted for radioactivity. Negative control tubes contained only the ^3H-folic acid in FFRPMI (no competitor). Positive control tubes contained a final concentration of 1 mM folic acid, and CPMs measured in these samples (representing non-specific binding of label) were subtracted from all samples.

FR-positive M109 tumors = assay: Inhibition of tumor growth in mice, M109; format: in vivo, Balb/c mice
Description: The anti-tumor activity of the compounds described herein, when administered intravenously (i.v.) to tumor-bearing animals, was evaluated in Balb/c mice bearing subcutaneous M109 tumors. […] Tumor growth was measured using calipers at 2-day or 3-day intervals in each treatment group. Tumor volumes were calculated using the equation V=a×b^2/2, where “a” is the length of the tumor and “b” is the width expressed in millimeters.

[2] = tested on: folate receptor positive human tumors; format: in vivo, nude mice; details: 2 μmol/kg TIW, five animals
[3] = tested on: KB, 4T-1c12, and ID8-c115 tumor cell lines; assay: In vitro cytotoxic activity on three tumor cell lines; details: 4T-1c12, ID8-c115, plus excess folic acid
[4] = tested on: folate receptor negative 4T1 tumors; assay: 4T-1 tumor volume assay; format: in vivo, Balb/c mice; details: 2 μmol/kg TIW for two weeks
Description: Six to seven week-old mice (female Balb/c strain) were obtained from Harlan, Inc., Indianapolis, Ind. The mice were maintained on Harlan's folate-free chow for a total of three weeks prior to the onset of and during this experiment. Folate receptor-negative 4T-1 tumor cells (1×10^6 cells per animal) were inoculated in the subcutis of the right axilla. […] Tumor growth was measured using calipers at 2-day or 3-day intervals in each treatment group. Tumor volumes were calculated using the equation V=a×b^2/2, where “a” is the length of the tumor and “b” is the width expressed in millimeters.

[5] = Weight determination, nude mice; format: in vivo, nu/nu mice
Description: (§1) The percentage weight change of the mice was determined in mice (5 mice/group) on the indicated days post-tumor inoculation (PTI) as shown in the graph for the samples described in the related tumor volume assay.

[6] = Weight determination, Balb/c mice (M109 study); format: in vivo; details: 1 μmol/kg and 2 μmol/kg TIW (6 doses)
Description: as §1

[7] = tested on: FR-positive s.c. human xenograft KB tumors; assay: Inhibition of tumor growth in mice, KB; format: in vivo, nu/nu mice
Description: The anti-tumor activity of the compounds described herein, when administered intravenously (i.v.) to tumor-bearing animals, was evaluated in nu/nu mice bearing subcutaneous KB tumors. […] Tumor growth was measured using calipers at 2-day or 3-day intervals in each treatment group. Tumor volumes were calculated using the equation V=a×b^2/2, where “a” is the length of the tumor and “b” is the width expressed in millimeters.

[8] = tested on: folate receptor-positive KB cells; format: cell-based, human
Description: The compounds described herein were evaluated using an in vitro cytotoxicity assay that predicts the ability of the drug to inhibit the growth of folate receptor-positive KB cells. The compounds were comprised of folate linked to a respective chemotherapeutic drug, as prepared according to the protocols described herein. The KB cells were exposed for up to 7 h at 37° C. to the indicated concentrations of folate-drug conjugate in the absence or presence of at least a 100-fold excess of folic acid. The cells were then rinsed once with fresh culture medium and incubated in fresh culture medium for 72 hours at 37° C. Cell viability was assessed using a ^3H-thymidine incorporation assay.
As shown in the figures herein, dose-dependent cytotoxicity was measurable, and in most cases, the IC50 values (concentration of drug conjugate required to reduce ^3H-thymidine incorporation into newly synthesized DNA by 50%) were in the low nanomolar range.

[9] = 1 μmol/kg TIW for 2 weeks plus 40 μmol/kg EC20 (rhenium complex)
[10] = 1 μmol/kg TIW for 2 weeks, without EC20

| SMILES | relative binding affinity at folic acid receptors [1] | growth of M109 tumors (FR-positive M109 tumors; 1 μmol/kg and 2 μmol/kg TIW (6 doses)) | growth of M109 tumors, higher dose (FR-positive M109 tumors; 2 μmol/kg TIW (6 doses), also after dosing ended on day 20) | complete responses, M109 tumors (FR-positive M109 tumors; 2 μmol/kg TIW (6 doses), five animals) | complete responses, FR-positive human tumors [2] | in vitro cytotoxic activity with excess folic acid [3] | activity on 4T1 tumors [4] | weight of nu/nu (nude) mice, with EC20 [5, 9] | weight of nu/nu (nude) mice [5, 10] | weight of nude mice ([5]; 2 μmol/kg TIW, FIG. 11) | weight of Balb/c mice [6] | complete responses, KB tumors ([7]; 1 μmol/kg TIW for 2 weeks (6 doses), alone) | complete responses, KB tumors, with EC20 [7, 9] | growth of KB tumors, with EC20 [7, 9] | growth of KB tumors [7, 10] | activity on established s.c. KB tumors versus controls ([7]; 1 μmol/kg TIW for two weeks, FIG. 13) | activity on large s.c. KB tumors ([7]; 2 μmol/kg TIW, 2 weeks, start at 250, 500 or 750 mm^3) | potency of Example 11 relative to Example 9 ([8]; 3H-thymidine incorporation IC50 compared) | pIC50 ([8]; KB cells, without excess folic acid, read-out: IC50, 3H-thymidine incorporation) | effect of excess folic acid on activity in 3H-thymidine incorporation ([8]; with excess folic acid) |
| --- | --- | --- | --- | --- | --- | --- | --- | --- | --- | --- | --- | --- | --- | --- | --- | --- | --- | --- | --- | --- |
| CC[C@]1(O)C[C@@H]2CN(CCc3c([nH]c4ccccc34)[C@@](C(=O)OC)(c3cc4c(cc3OC)N(C)[C@H]3[C@@](O)(C(=O)NNC(=O)OCCSSC[C@H](NC(=O)[C@H](CN)NC(=O)[C@H](CC(=O)O)NC(=O)[C@H](CC(=O)O)NC(=O)[C@H](CC(=O)O)NC(=O)CC[C@H](NC(=O)c5ccc(NCc6cnc7nc(N)[nH]c(=O)c7n6)cc5)C(=O)O)C(=O)O)[C@H](O)[C@]5(CC)C=CCN6CC[C@]43[C@@H]65)C2)C1 [Example 9] | 0.24 |  |  |  |  |  |  |  |  |  |  |  |  |  |  |  |  |  |  |  |
| CC[C@]1(O)CC2CN(CCc3c([nH]c4ccccc34)[C@@](C(=O)OC)(c3cc4c(cc3OC)N(C)[C@H]3[C@@](O)(C(=O)NNC(=O)OCCSSC[C@H](NC(=O)[C@H](CNC(=O)CCSSCCNC5=C(C)C(=O)C6=C(C5=O)[C@@H](COC(N)=O)[C@@]5(OC)[C@H]7N[C@H]7CN65)NC(=O)[C@H](CC(=O)O)NC(=O)[C@H](CC(=O)O)NC(=O)[C@H](CC(=O)O)NC(=O)CC[C@H](NC(=O)c5ccc(NCc6cnc7nc(N)[nH]c(=O)c7n6)cc5)C(=O)O)C(=O)O)[C@H](O)[C@]5(CC)C=CCN6CC[C@]43[C@@H]65)C2)C1 (stereo partly shown) [Example 11] | 0.21 | inhibited the growth of solid tumors | strong inhibition of tumor growth | all five animals showed a complete response | complete response in five out of five test animals | reduced in the presence of excess folic acid | does not have any effect on the tumors compared to controls | absence of an effect | did not affect the weight of the test animal significantly from controls; also recorded: absence of an effect | did not significantly affect the weight of the test animals; also recorded: absence of an effect | little effect on the weight of the mice; also recorded: absence of an effect | 5/5 | 0/5 | inhibitory effect is prevented (competed against) by the EC20 rhenium complex | inhibits the growth of solid tumors | superior to controls | inhibits the growth of large tumors and gives a complete response in test animals | more than 10 fold | 8.30 | folic acid competes with the conjugates for binding to the folate receptor |
| Nc1nc2ncc(CNc3ccc(C(=O)N[C@@H](CCC(=O)O)C(=O)O)cc3)nc2c(=O)[nH]1 [folic acid, reference compound] | 1.0 |  |  |  |  |  |  |  |  |  |  |  |  |  |  |  |  |  |  |  |
